Test results: article PMC6222857, “Synthesis and Preliminary Evaluation of Biological Activity of Glycoconjugates Analogues of Acyclic Uridine Derivatives” (Molecules : A Journal of Synthetic Chemistry and Natural …, 2018)

Target: T1, β-1,4-galactosyltransferase I (β4GalT) from bovine milk (Bos taurus, UniProt P08037)
T1 construct: gene B4GALT1
T1 sequence (P08037 1-402): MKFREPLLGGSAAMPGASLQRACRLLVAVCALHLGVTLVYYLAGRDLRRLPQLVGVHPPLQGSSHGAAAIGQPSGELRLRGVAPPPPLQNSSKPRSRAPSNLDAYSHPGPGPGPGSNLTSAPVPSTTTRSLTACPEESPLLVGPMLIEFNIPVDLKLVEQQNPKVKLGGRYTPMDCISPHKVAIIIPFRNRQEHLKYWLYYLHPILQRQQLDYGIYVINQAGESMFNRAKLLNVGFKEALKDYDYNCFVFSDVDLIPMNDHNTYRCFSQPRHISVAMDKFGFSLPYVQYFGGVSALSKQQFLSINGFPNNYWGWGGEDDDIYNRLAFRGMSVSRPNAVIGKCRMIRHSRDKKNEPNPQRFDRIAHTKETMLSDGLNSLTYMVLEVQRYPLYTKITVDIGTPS
Assay: RP-HPLC enzymatic assay with fluorescence detection: galactose transfer from UDP-Gal to esculine
Type: biochemical

**Q.** With `O=C(CCOCn1ccc(=O)[nH]c1=O)Nc1ccc(S[C@@H]2O[C@H](CO)[C@@H](O)[C@H](O)[C@H]2O)nc1` [compound 64, Glycoconjugate 64] as the compound, how does the IC50 read?
**A.** 710 µM
